For nine molecules, IC50 results are on record in PubChem BioAssay AID2823 (Broad Institute, 2010).

Molecules are shown by their SMILES. Activity calls are given as the source filed them. No rule for the calls is given here. A value given as a limit tells only on which side of the number the result lay.

In the assay the target is RanGTP-importin-beta complex (human Ran / KPNB1). As to the kind of experiment: Ran–importin-beta interaction inhibitors, confirmation, biochemical, FRET, CFP/YFP, cell-free homogeneous (AID 2823). As to conditions: CFP-Ran/YFP-importin-beta FRET ratio.
`CCOC(=O)c1c(N)n(CCCOC(=O)c2ccco2)c2nc3ccccc3nc12`: the IC50 was 23.7 µM.

As to `O=C(NNc1c2ccccc2nc2ccccc12)c1cc2ccccc2cc1O`, the IC50 was > 50 µM (inactive).

Regarding `Nc1c(C(=O)Nc2ccccc2)c2nc3ccccc3nc2n1CCCN1CCOCC1`, the IC50 is 41.7 µM.

Turning to `COC(=O)C1=C(C)NC2=C(C(=O)CCC2)C1c1cccc(C)n1` (centres undefined), the IC50 is 25.5 µM.

As to `CCc1c(C)c2cc(Cl)c(O)c(CN(CC)CC)c2oc1=O`, the IC50 was 22 µM.

As for `N#Cc1c(N)n(CCOC(=O)c2ccc(Cl)cc2)c2nc3ccccc3nc12`, the IC50 is 3.68 µM.

As to `CCOC(=O)/C(C#N)=C1/C=Nc2ccccc2N1`, the IC50 was > 50 µM (inactive).

With `c1ccc2sc(NC3=NCN(CCN4CCOCC4)CN3)nc2c1`, the IC50 is > 50 µM (inactive).

As to `CCCc1cc(=O)oc2c(CN3CCN(C)CC3)c(O)c(Cl)cc12`, the IC50 is 28.4 µM.
